Assay results taken from ChEMBL document CHEMBL1148777, “Toward the development of prophylactic and therapeutic human papillomavirus type-16 lipopeptide vaccines” (J Med Chem, 2007).
Active and inactive are the calls of the source. The rule behind the calls is not given here. *1 amine or outer side, *2 acyl side, *3 side chain or, on linkers, in order; H or OH if unused. Where a SMILES comes first, the peptide text is derived from it. [ ]: non-standard residue; d: D form. The star is where a group is joined. ξ: configuration not given here. X3 = CC(=O)OC[C@@H]1O[C@H](N*)[C@H](OC(C)=O)[C@H](OC(C)=O)[C@H]1OC(C)=O; X2 = OC[C@@H]1O[C@H](N*)[C@@H](O)[C@H](O)[C@H]1O; X1 = OC[C@@H]1O[C@H](N*)[C@H](O)[C@H](O)[C@H]1O; Ile(3ξ) = CCC(C)[C@H](N)C(=O)O; Thr(3ξ) = CC(O)[C@H](N)C(=O)O; Suc = O=C(CCC(=O)[*:2])[*:1]

Assays:
TC1 [1] = test: Antitumor activity against HPV16 associated TC1 cells xenografted C57BL/6(H2b) mouse
TC1 [2] = test: Antitumor activity against HPV16 associated TC1 cells xenografted C57BL/6(H2b) mouse at 40 ug; format: functional

SMILES	Activity (TC1 [1])	Activity (TC1 [2])
CC[C@H](C)[C@H](NC(=O)[C@@H](NC(=O)[C@@H](N)CO)[C@@H](C)CC)C(=O)N[C@@H](CC(N)=O)C(=O)N[C@@H](Cc1ccccc1)C(=O)N[C@@H](CCC(=O)O)C(=O)N[C@@H](CCCCN)C(=O)N[C@@H](CC(C)C)C(=O)O	inactive	–
CCC(C)[C@H](NC(=O)[C@H](CC(N)=O)NC(=O)[C@H](Cc1ccc(O)cc1)NC(=O)[C@H](Cc1cnc[nH]1)NC(=O)[C@H](C)NC(=O)[C@H](CCCNC(=N)N)NC(=O)[C@H](CC(=O)O)NC(=O)[C@@H]1CCCN1C(=O)[C@H](CCC(=O)O)NC(=O)[C@H](C)NC(=O)[C@H](CCC(N)=O)NC(=O)CCC(=O)N[C@H]1O[C@@H](CO)[C@H](O)[C@@H](O)[C@H]1O)C(=O)N[C@H](C(=O)N[C@H](C(=O)N[C@@H](Cc1ccccc1)C(=O)N[C@@H](CS)C(=O)N[C@@H](CS)C(=O)N[C@@H](CCCCN)C(=O)N[C@@H](CS)C(=O)N[C@@H](CC(=O)O)C(N)=O)C(C)O)C(C)C (some centres undefined) ({X1-Suc}-QAEPDRAHYN[Ile(3ξ)]V[Thr(3ξ)]FCCKCD-NH2)	–	inactive
CCC(C)[C@H](NC(=O)[C@H](CC(N)=O)NC(=O)[C@H](Cc1ccc(O)cc1)NC(=O)[C@H](Cc1cnc[nH]1)NC(=O)[C@H](C)NC(=O)[C@H](CCCNC(=N)N)NC(=O)[C@H](CC(=O)O)NC(=O)[C@@H]1CCCN1C(=O)[C@H](CCC(=O)O)NC(=O)[C@H](C)NC(=O)[C@H](CCC(N)=O)NC(=O)CCC(=O)N[C@H]1O[C@@H](CO)[C@H](O)[C@@H](O)[C@@H]1O)C(=O)N[C@H](C(=O)N[C@H](C(=O)N[C@@H](Cc1ccccc1)C(=O)N[C@@H](CS)C(=O)N[C@@H](CS)C(=O)N[C@@H](CCCCN)C(=O)N[C@@H](CS)C(=O)N[C@@H](CC(=O)O)C(N)=O)C(C)O)C(C)C (some centres undefined) ({X2-Suc}-QAEPDRAHYN[Ile(3ξ)]V[Thr(3ξ)]FCCKCD-NH2)	–	inactive
CCC(C)[C@H](NC(=O)[C@H](CC(N)=O)NC(=O)[C@H](Cc1ccc(O)cc1)NC(=O)[C@H](Cc1cnc[nH]1)NC(=O)[C@H](C)NC(=O)[C@H](CCCNC(=N)N)NC(=O)[C@H](CC(=O)O)NC(=O)[C@@H]1CCCN1C(=O)[C@H](CCC(=O)O)NC(=O)[C@H](C)NC(=O)[C@H](CCC(N)=O)NC(=O)CCC(=O)N[C@H]1O[C@@H](COC(C)=O)[C@H](OC(C)=O)[C@@H](OC(C)=O)[C@H]1OC(C)=O)C(=O)N[C@H](C(=O)N[C@H](C(=O)N[C@@H](Cc1ccccc1)C(=O)N[C@@H](CS)C(=O)N[C@@H](CS)C(=O)N[C@@H](CCCCN)C(=O)N[C@@H](CS)C(=O)N[C@@H](CC(=O)O)C(N)=O)C(C)O)C(C)C (some centres undefined) ({X3-Suc}-QAEPDRAHYN[Ile(3ξ)]V[Thr(3ξ)]FCCKCD-NH2)	–	inactive
